Data set [1] can be described thus: Metabolic stability in liver microsomes, human. The conditions noted are these: human, microsomes, pH 7.4. The method, then: (§1) The solution B is slowly dropped into solution A, and the pH is adjusted to 7.40±0.05.
(§2) • Control drug: 4 μL Verapamil solution (10 mM) is added with 96 μL DMSO and diluted to 400 μM; • Compound to be tested: 4 μL compound to be tested (10 mM) is added with 96 μL normal saline and diluted to 400 μM.
(§3) The microsomes are stored in the refrigerator at −80° C., thawed at room temperature after being taken out, and mixed gently.
(§4) […] PBS (100 mm, pH=7.4) solution is added to the negative sample. The solution is put into water bath at 37° C. and pre-incubated for 10 minutes; • B) After incubation, 2 μL reference drug or compound to be tested (400 μM) are added into each well to start the reaction.
For orientation: Liver microsomes are vesicles of endoplasmic reticulum, rich in cytochrome P450 enzymes.

Data set [2] can be described thus: Metabolic stability in liver microsomes, dog. As to conditions: dog, microsomes, pH 7.4. The method, then:
as §1, §2, §3, §4

Data set [3] in a line: Metabolic stability in liver microsomes, rat. As to conditions: rat, microsomes, pH 7.4. The method, then: as §1, §2, §3, §4
Data set [4] in a line: Metabolic stability in liver microsomes, mouse. The conditions noted are these: mouse, microsomes, pH 7.4. The method, then: as §1, §2, §3, §4
Data set [5] concerns the target T1, hERG potassium channel (Homo sapiens, UniProt Q12809). The conditions noted are these: read-out: hERG IC50; J Med Chem.2013 24; 56 (20): 8019-31; cited from earlier work. On the technique in general: Block of hERG is tested as a sign of cardiac risk.
The target of data set [6] is T1, hERG potassium channel. As to the kind of experiment: hERG potassium channel whole-cell patch clamp (HEK293). It counts as cell-based. The arrangement: expressed in transfected cells; host or cells: HEK293 cell line. The source says:
The rapidly activated potassium channel encoded by human ether-a-go-go-related gene (hERG) is an important ion channel involved in the formation of phase 3 repolarization of myocardial action potential. […] Drug-induced delayed ventricular repolarization may cause fatal arrhythmia-torsade de pointes in some cases. According to statistics, about 25-40% of the lead compounds show different degrees of hERG-related toxicity, and many drugs are withdrawn from the market because they may lead to the risk of QT interval extension. At present, National Medical Products Administration also requires hERG/IKr safety evaluation data before clinical trial application (IND) of new drugs under study. • 1. Whole-cell patch clamp technique is used to study the inhibitory effect of compounds on hERG potassium channels: • 1) the compound to be tested is stored with physiological saline prepared into 10 mM liquid. The test stock solution is diluted with physiological saline into 3 mM, 1 mM and 0.3 mM diluents in turn. […] The old culture medium removed and is washed once with PBS, then added with 1 mL TrypLE™ Express solution and incubated at 37° C. for about 0.5 minutes. When the cells are detached from the bottom of the dish, about 5 ml complete medium preheated is added at 37° C. The cell suspension is gently blown with a straw to separate the aggregated cells. The cell suspension is transferred to a sterile centrifuge tube and centrifuged at 1000 rpm for 5 minutes to collect cells. […] The clamping voltage is depolarized from −80 mV to −50 mV for 0.5 seconds (as leakage current detection), then stepped to 30 mV for 2.5 seconds, and then quickly recovered to −50 mV for 4 seconds, which can excite the tail current of hERG channel. Data are collected repeatedly every 10s to observe the effect of drugs on hERG tail current. 0.5 seconds-50 mV stimulation is used as leakage current detection. The test data are collected by IPA amplifier (Sutter Instrument) and stored in SutterPatch software.
Capillary glass tube is drawn into recording electrode by microelectrode drawing instrument. Under the inverted microscope, the microelectrode manipulator is operated to contact the recording electrode with the cell, and negative pressure suction is given to form a GΩ seal. After the GΩ seal is formed, rapid capacitance compensation is carried out, and then negative pressure is continuously applied to break the cell membrane, forming a whole cell recording mode. Then the slow capacitance is compensated and the film capacitance and series resistance are recorded. No leakage compensation is given.
When the hERG current recorded in the whole cell is stable, the drug is administered, and the next concentration is detected after each drug concentration acts for 5 minutes (or the current is stable), and multiple concentrations are detected for each test compound. The cover glass covered with cells is placed in the recording bath in an inverted microscope, and the test compound and the external liquid containing no compound flowed through the recording bath from low concentration to high concentration by gravity perfusion method, so as to act on the cells, and liquid exchange is carried out by using a vacuum pump during recording. The current detected by each cell in the external fluid without compounds is used as its own control group.
At least two cells are used to detect each concentration independently and repeatedly twice. All electrophysiological tests are conducted at room temperature.
Firstly, the current after each drug concentration and the blank control current are standardized
[formula] followed by the calculation of the inhibition rate
[formula] corresponding to each drug concentration, the average and standard deviation for each concentration, and the semi-inhibition concentration of each compound with the following equation: […]
The dose-dependent effect is nonlinear fitted by the above equation, and IC50 is semi-inhibitory concentration.

Data set [7] has as its target CYP 2C9 (Homo sapiens, UniProt P11712). Kind of data set: Inhibition of cytochrome P450 enzyme in human liver microsomes, CYP 2C9.
For data set [8], the target named is CYP 2D6 (Homo sapiens, UniProt P10635). Kind of data set: Inhibition of cytochrome P450 enzyme in human liver microsomes, CYP 2D6.
Data set [9] concerns the target CYP 2C19 (Homo sapiens, UniProt P33261). As to the kind of experiment: Inhibition of cytochrome P450 enzyme in human liver microsomes, CYP 2C19.

“Also recorded” adds a separate entry of the source. Like-named read-outs stand apart in the source and are kept apart here.

T1 sequence (Q12809 whole entry): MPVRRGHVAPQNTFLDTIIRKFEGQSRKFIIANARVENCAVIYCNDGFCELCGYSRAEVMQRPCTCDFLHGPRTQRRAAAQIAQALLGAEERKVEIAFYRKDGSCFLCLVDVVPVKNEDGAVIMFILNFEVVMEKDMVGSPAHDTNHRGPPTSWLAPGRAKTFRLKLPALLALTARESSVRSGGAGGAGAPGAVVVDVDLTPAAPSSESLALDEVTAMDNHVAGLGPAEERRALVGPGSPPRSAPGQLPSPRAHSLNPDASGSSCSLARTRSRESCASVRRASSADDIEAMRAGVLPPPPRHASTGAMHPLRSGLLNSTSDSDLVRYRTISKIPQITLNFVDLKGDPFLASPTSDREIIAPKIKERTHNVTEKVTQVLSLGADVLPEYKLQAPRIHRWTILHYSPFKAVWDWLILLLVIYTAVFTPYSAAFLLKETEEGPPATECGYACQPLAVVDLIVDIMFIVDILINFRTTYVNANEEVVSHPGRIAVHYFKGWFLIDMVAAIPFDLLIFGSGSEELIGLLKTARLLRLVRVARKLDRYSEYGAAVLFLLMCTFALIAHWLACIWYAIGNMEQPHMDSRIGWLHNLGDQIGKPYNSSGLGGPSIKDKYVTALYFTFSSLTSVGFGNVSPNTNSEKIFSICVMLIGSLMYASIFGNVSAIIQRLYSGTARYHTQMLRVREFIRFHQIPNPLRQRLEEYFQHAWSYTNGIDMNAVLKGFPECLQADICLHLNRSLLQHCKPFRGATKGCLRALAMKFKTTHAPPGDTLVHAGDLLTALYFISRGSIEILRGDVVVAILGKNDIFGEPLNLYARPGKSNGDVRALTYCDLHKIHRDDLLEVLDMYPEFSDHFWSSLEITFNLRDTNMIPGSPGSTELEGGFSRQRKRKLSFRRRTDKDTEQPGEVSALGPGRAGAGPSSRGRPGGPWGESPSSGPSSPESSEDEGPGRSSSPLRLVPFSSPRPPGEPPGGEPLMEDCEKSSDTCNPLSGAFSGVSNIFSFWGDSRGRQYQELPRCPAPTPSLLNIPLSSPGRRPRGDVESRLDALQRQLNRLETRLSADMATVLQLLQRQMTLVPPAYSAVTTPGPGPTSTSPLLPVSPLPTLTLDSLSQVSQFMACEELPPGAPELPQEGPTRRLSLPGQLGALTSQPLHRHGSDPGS
Sequence of CYP 2D6 (P10635 whole entry): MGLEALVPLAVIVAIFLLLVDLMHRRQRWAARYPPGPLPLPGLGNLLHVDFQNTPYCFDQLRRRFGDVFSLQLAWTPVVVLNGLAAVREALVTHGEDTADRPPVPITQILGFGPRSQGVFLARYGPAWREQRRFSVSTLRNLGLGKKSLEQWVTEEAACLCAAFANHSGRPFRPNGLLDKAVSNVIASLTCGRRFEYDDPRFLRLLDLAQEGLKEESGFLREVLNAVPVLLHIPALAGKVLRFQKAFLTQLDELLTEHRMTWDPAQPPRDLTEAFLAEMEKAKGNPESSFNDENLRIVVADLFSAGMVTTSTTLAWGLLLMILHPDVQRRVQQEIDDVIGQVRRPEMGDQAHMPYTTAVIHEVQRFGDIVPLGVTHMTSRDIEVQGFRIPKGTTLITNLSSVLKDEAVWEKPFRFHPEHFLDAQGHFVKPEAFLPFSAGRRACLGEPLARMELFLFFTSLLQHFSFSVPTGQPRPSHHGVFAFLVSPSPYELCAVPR
Sequence of CYP 2C9 (P11712 whole entry): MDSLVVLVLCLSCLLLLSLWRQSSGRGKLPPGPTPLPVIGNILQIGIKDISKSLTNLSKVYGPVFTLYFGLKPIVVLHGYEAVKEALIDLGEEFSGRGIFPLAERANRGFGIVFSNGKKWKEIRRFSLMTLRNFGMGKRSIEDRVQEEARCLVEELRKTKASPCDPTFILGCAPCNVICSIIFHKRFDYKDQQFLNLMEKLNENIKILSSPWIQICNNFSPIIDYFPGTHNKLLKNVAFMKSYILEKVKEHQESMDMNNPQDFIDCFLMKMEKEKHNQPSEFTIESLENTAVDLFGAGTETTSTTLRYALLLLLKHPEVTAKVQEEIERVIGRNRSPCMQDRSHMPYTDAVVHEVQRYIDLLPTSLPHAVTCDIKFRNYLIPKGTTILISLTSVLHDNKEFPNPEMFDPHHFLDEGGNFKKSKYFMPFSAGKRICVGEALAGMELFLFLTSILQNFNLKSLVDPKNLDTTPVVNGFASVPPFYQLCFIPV
Sequence of CYP 2C19 (P33261 whole entry): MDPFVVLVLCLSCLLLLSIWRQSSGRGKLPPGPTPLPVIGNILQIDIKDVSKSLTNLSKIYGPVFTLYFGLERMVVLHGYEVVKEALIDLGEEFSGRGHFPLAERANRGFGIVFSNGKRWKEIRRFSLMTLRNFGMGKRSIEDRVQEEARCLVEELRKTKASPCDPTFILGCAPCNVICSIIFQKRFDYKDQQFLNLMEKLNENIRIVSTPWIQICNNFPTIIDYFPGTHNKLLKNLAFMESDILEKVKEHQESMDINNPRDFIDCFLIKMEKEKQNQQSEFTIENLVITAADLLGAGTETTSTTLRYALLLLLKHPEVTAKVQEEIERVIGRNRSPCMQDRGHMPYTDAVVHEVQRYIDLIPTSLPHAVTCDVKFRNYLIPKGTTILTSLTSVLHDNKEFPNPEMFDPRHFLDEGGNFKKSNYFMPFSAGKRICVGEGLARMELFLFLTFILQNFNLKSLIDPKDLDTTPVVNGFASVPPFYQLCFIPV

As usually defined, the half-life is the time in which the quantity being followed falls by half. Higher therefore signals slow loss. One may read the microsomal CLint as the capacity of the preparation to metabolise the compound, expressed as a volume cleared per time. High values mean rapid turnover, low ones slow turnover. In general, IC50 refers to the concentration that inhibits the measured activity by half. With `COc1ccsc1CNCC[C@@]1(c2ccccn2)CCOC2(CCCC2)C1` [TRV-130, reference compound], the half-life at 2 μM in [1] stood at 4.08 min; in data set [2], 2.22 min; in [3], 1.61 min; in data set [4], 1.67 min. Further, the microsomal CLint at 2 μM is 340 µL/min/mg in [1], 624 µL/min/mg in [2], 863 µL/min/mg in data set [3] and 831 µL/min/mg in [4]. In addition, the IC50 in data set [5] was 6.2 µM; in data set [6], 6.17 µM; in data set [7], over 50 µM; in data set [8], 7.17 µM; in data set [9], over 50 µM. Further, the “hERG inhibition grade” value in data set [6] is “moderate inhibitory effects on hERG; also recorded: μM(Moderate intensity inhibition)”.
